Values joined by “and” are separate entries in the source; they are usually repeats but may differ in a detail not shown here. Equal entries are not always repeated.
Test system: BDF1 mice, Adenocarcinoma 755 s.c., tumor weight T/C
Test: NCI In Vivo Anticancer Drug Screen. Data for tumor model Adenocarcinoma 755 (subcutaneous) in B6D2F1 (BDF1) mice
Details: endpoint: mean tumor weight, higher = larger tumour
Summary of the method: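 Tumor-bearing mice receive test compound while controls get vehicle alone. Antitumor effect is scored from survival or tumor dimensions as a T/C quotient.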

[1] = dose: 25.0 mg/kg/injection, schedule: Q01DX011 (ip), vehicle: methylcellulose (MC)
[2] = dose: 75.0 mg/kg/injection, schedule: Q01DX011 (ip), vehicle: methylcellulose (MC)
[3] = dose: 150.0 mg/kg/injection, schedule: Q01DX011 (ip), vehicle: methylcellulose (MC)
[4] = dose: 31.0 mg/kg/injection, schedule: Q01DX011 (ip), vehicle: methylcellulose (MC)
[5] = dose: 62.0 mg/kg/injection, schedule: Q01DX011 (ip), vehicle: methylcellulose (MC)
[6] = dose: 125.0 mg/kg/injection, schedule: Q01DX011 (ip), vehicle: methylcellulose (MC)

CC(C)Cn1cnc2c(SCc3ccc(Cl)cc3Cl)nc(N)nc21 was tested, and the T/C (dose: 9.0 mg/kg/injection, schedule: Q01DX011 (ip), vehicle: other) was 78 % of control, the T/C (dose: 12.5 mg/kg/injection, schedule: Q01DX011 (ip), vehicle: methylcellulose (MC)) was 41 % of control and the T/C (dose: 18.0 mg/kg/injection, schedule: Q01DX011 (ip), vehicle: other) was 78 % of control. The T/C [1] was 65 % of control, the T/C (dose: 37.0 mg/kg/injection, schedule: Q01DX011 (ip), vehicle: other) was 92 % of control and the T/C (dose: 38.0 mg/kg/injection, schedule: Q01DX011 (ip), vehicle: methylcellulose (MC)) was 74 % of control. The T/C (dose: 50.0 mg/kg/injection, schedule: Q01DX011 (ip), vehicle: methylcellulose (MC)) was 87 % of control, the T/C [2] was 113 % of control and the T/C (dose: 100.0 mg/kg/injection, schedule: Q01DX011 (ip), vehicle: methylcellulose (MC)) was 69 % of control. The T/C [3] was 80 % of control, the T/C (dose: 200.0 mg/kg/injection, schedule: Q01DX011 (ip), vehicle: other) was 7 % of control and 15 % of control and the T/C (dose: 300.0 mg/kg/injection, schedule: Q01DX011 (ip), vehicle: methylcellulose (MC)) was 59 % of control. The T/C (dose: 400.0 mg/kg/injection, schedule: Q01DX011 (ip), vehicle: other) was 24 % of control and the T/C (dose: 600.0 mg/kg/injection, schedule: Q01DX011 (ip), vehicle: methylcellulose (MC)) was 91 % of control.

C[N+](C)(C)c1ncnc2c1ncn2C1OC(CO)C(O)C1O (stereo unspecified) was tested, and the T/C (dose: 30.0 mg/kg/injection, schedule: Q01DX011 (ip), vehicle: saline) was 48 % of control and 61 % of control, the T/C (dose: 60.0 mg/kg/injection, schedule: Q01DX011 (ip), vehicle: saline) was 109 % of control and the T/C (dose: 120.0 mg/kg/injection, schedule: Q01DX011 (ip), vehicle: saline) was 28 % of control. The T/C (dose: 240.0 mg/kg/injection, schedule: Q01DX011 (ip), vehicle: saline) was 9 % of control.

With CCC(C)Cn1cnc2c(=O)[nH]c(N)nc21 (stereo unspecified) the T/C (dose: 37.5 mg/kg/injection, schedule: Q01DX011 (ip), vehicle: methylcellulose (MC)) was 75 % of control, the T/C [2] was 49 % of control and the T/C [3] was 67 % of control.

CC1(O)CC([CH2][Hg][I])OC([CH2][Hg][I])C1 (stereo unspecified) was tested, and the T/C (dose: 25.0 mg/kg/injection, schedule: Q01DX011 (ip), vehicle: carboxymethylcellulose (CMC)) was 96 % of control and the T/C (dose: 50.0 mg/kg/injection, schedule: Q01DX011 (ip), vehicle: carboxymethylcellulose (CMC)) was 67 % of control.

For Cn1c(=O)c2c(nc(CN3CCOCC3)n2C)n(C)c1=O, the T/C (dose: 30.0 mg/kg/injection, schedule: Q01DX011 (ip), vehicle: methylcellulose (MC)) was 122 % of control, the T/C (dose: 60.0 mg/kg/injection, schedule: Q01DX011 (ip), vehicle: methylcellulose (MC)) was 81 % of control and the T/C (dose: 120.0 mg/kg/injection, schedule: Q01DX011 (ip), vehicle: methylcellulose (MC)) was 80 % of control. For the same compound, the T/C (dose: 240.0 mg/kg/injection, schedule: Q01DX011 (ip), vehicle: methylcellulose (MC)) was 92 % of control.

In the case of CCOC(=O)C1=C(C)NC(C)=C(C(=O)OCC)C1C, the T/C (dose: 31.2 mg/kg/injection, schedule: Q01DX011 (ip), vehicle: other) is reported as 85 % of control, the T/C (dose: 62.5 mg/kg/injection, schedule: Q01DX011 (ip), vehicle: other) is reported as 77 % of control and the T/C (dose: 125.0 mg/kg/injection, schedule: Q01DX011 (ip), vehicle: other) is reported as 79 % of control and 81 % of control.

In the case of Cn1c(=O)c2[nH]c(/N=N/N3CCCCC3)nc2n(C)c1=O, the T/C [1] is reported as 61 % of control and the T/C [2] is reported as 69 % of control and 70 % of control.

CC1(C)OC2C(CO)OC(n3cnc4c(SCc5ccccc5)ncnc43)C2O1 (stereo unspecified) was tested, and the T/C [4] was 79 % of control, the T/C [5] was 59 % of control and the T/C [6] was 50 % of control.

In the case of N#CCSc1ncnc2nc[nH]c12, the T/C (dose: 1.0 mg/kg/injection, schedule: Q01DX011 (im), vehicle: carboxymethylcellulose (CMC)) is reported as 63 % of control, the T/C (dose: 1.0 mg/kg/injection, schedule: Q01DX011 (ip), vehicle: carboxymethylcellulose (CMC)) is reported as 54 % of control and the T/C (dose: 1.0 mg/kg/injection, schedule: Q01DX011 (iv), vehicle: carboxymethylcellulose (CMC)) is reported as 79 % of control. The T/C (dose: 1.0 mg/kg/injection, schedule: Q01DX011 (sc), vehicle: carboxymethylcellulose (CMC)) was 53 % of control, the T/C (dose: 2.0 mg/kg/injection, schedule: Q01DX011 (im), vehicle: carboxymethylcellulose (CMC)) was 9 % of control and the T/C (dose: 2.0 mg/kg/injection, schedule: Q01DX011 (ip), vehicle: carboxymethylcellulose (CMC)) was 14 % of control. For the same compound, the T/C (dose: 2.0 mg/kg/injection, schedule: Q01DX011 (iv), vehicle: carboxymethylcellulose (CMC)) was 28 % of control, the T/C (dose: 2.0 mg/kg/injection, schedule: Q01DX011 (sc), vehicle: carboxymethylcellulose (CMC)) was 10 % of control and the T/C (dose: 4.0 mg/kg/injection, schedule: Q01DX011 (im), vehicle: carboxymethylcellulose (CMC)) was 1 % of control. The T/C (dose: 4.0 mg/kg/injection, schedule: Q01DX011 (ip), vehicle: carboxymethylcellulose (CMC)) was 6 % of control, the T/C (dose: 8.0 mg/kg/injection, schedule: Q01DX011 (ip), vehicle: carboxymethylcellulose (CMC)) was 7 % of control and the T/C (dose: 8.0 mg/kg/injection, schedule: Q01DX011 (iv), vehicle: carboxymethylcellulose (CMC)) was 1 % of control. For the same compound, the T/C (dose: 16.0 mg/kg/injection, schedule: Q01DX011 (ip), vehicle: carboxymethylcellulose (CMC)) was 3 % of control, the T/C (dose: 50.0 mg/kg/injection, schedule: Q03DX004 (ip), vehicle: carboxymethylcellulose (CMC)) was 2 % of control and the T/C (dose: 64.0 mg/kg/injection, schedule: Q01DX011 (ip), vehicle: carboxymethylcellulose (CMC)) was 2 % of control. The T/C (dose: 100.0 mg/kg/injection, schedule: Q01DX001 (ip), vehicle: carboxymethylcellulose (CMC)) was 20 % of control, the T/C (dose: 100.0 mg/kg/injection, schedule: Q03DX004 (ip), vehicle: carboxymethylcellulose (CMC)) was 1 % of control and the T/C (dose: 100.0 mg/kg/injection, schedule: Q07DX002 (ip), vehicle: carboxymethylcellulose (CMC)) was 5 % of control. For the same compound, the T/C (dose: 200.0 mg/kg/injection, schedule: Q01DX001 (ip), vehicle: carboxymethylcellulose (CMC)) was 20 % of control and the T/C (dose: 200.0 mg/kg/injection, schedule: Q07DX002 (ip), vehicle: carboxymethylcellulose (CMC)) was 3 % of control.

Cc1c2ccccc2c(C)c2c1ccc1ccccc12 was tested, and the T/C (dose: 9.0 mg/kg/injection, schedule: Q01DX011 (ip), vehicle: carboxymethylcellulose (CMC)) was 63 % of control, the T/C (dose: 19.0 mg/kg/injection, schedule: Q01DX011 (ip), vehicle: carboxymethylcellulose (CMC)) was 54 % of control and the T/C (dose: 38.0 mg/kg/injection, schedule: Q01DX011 (ip), vehicle: carboxymethylcellulose (CMC)) was 51 % of control.

For CC(=O)OC1CCC(C2CCCCC2)CC1 (stereo unspecified), the T/C (dose: 29.0 mg/kg/injection, schedule: Q01DX011 (ip), vehicle: saline) was 157 % of control, the T/C (dose: 57.0 mg/kg/injection, schedule: Q01DX011 (ip), vehicle: saline) was 173 % of control and the T/C (dose: 57.0 mg/kg/injection, schedule: Q01DX011 (oral), vehicle: saline) was 86 % of control. The T/C (dose: 113.0 mg/kg/injection, schedule: Q01DX011 (oral), vehicle: saline) was 102 % of control and the T/C (dose: 225.0 mg/kg/injection, schedule: Q01DX011 (oral), vehicle: saline) was 84 % of control.

Cn1c2c(sc1=O)CCC2 was tested, and the T/C (dose: 88.0 mg/kg/injection, schedule: Q01DX011 (ip), vehicle: methylcellulose (MC)) was 54 % of control and the T/C (dose: 175.0 mg/kg/injection, schedule: Q01DX011 (ip), vehicle: methylcellulose (MC)) was 80 % of control.

In the case of Cc1ccc(N=Nc2c(S(=O)(=O)O)cc3cc(NC(=O)Nc4ccc5c(O)c(N=Nc6ccc7cc(S(=O)(=O)O)ccc7c6)c(S(=O)(=O)O)cc5c4)ccc3c2O)c(C)c1, the T/C (dose: 45.0 mg/kg/injection, schedule: Q01DX011 (ip), vehicle: carboxymethylcellulose (CMC)) is reported as 81 % of control.

C[C@]12CCC(=O)C=C1CC[C@@H]1[C@@H]2[C@@H](O)C[C@@]2(C)[C@H]1CC[C@]2(O)C(=O)COC(=O)c1ccc([N+](=O)[O-])cc1Cl was tested, and the T/C (dose: 25.0 mg/kg/injection, schedule: Q01DX011 (sc), vehicle: water) was 43 % of control, the T/C (dose: 50.0 mg/kg/injection, schedule: Q01DX011 (sc), vehicle: water) was 17 % of control and the T/C (dose: 100.0 mg/kg/injection, schedule: Q01DX011 (sc), vehicle: water) was 23 % of control. For the same compound, the T/C (dose: 200.0 mg/kg/injection, schedule: Q01DX011 (sc), vehicle: water) was 4 % of control.

In the case of CCOc1nc(N)nc2nc[nH]c12, the T/C (dose: 8.0 mg/kg/injection, schedule: Q01DX011 (ip), vehicle: methylcellulose (MC)) is reported as 88 % of control, the T/C (dose: 16.0 mg/kg/injection, schedule: Q01DX011 (ip), vehicle: methylcellulose (MC)) is reported as 55 % of control and the T/C [4] is reported as 59 % of control.

In the case of O=c1[nH]cnc2c1ncn2CCCl, the T/C [1] is reported as 195 % of control, the T/C [2] is reported as 150 % of control and the T/C (dose: 225.0 mg/kg/injection, schedule: Q01DX011 (ip), vehicle: methylcellulose (MC)) is reported as 120 % of control.

Cc1ccccc1Nc1nc(N)nc(C)c1Br was tested, and the T/C (dose: 15.0 mg/kg/injection, schedule: Q01DX011 (ip), vehicle: methylcellulose (MC)) was 55 % of control, the T/C [4] was 88 % of control and the T/C [5] was 106 % of control. The T/C [6] was 72 % of control and the T/C (dose: 250.0 mg/kg/injection, schedule: Q01DX011 (ip), vehicle: methylcellulose (MC)) was 81 % of control.

Source: PubChem BioAssay AID180 (DTP/NCI, 2004)
